Experimental data reported in patent US20070087400A1, “Covalent tethering of functional groups to proteins and substrates therefor” (priority 2004, published 2007).
Read-outs that look alike come from different tables or passages of the source.

Columns and labels:
CHO-K1 cells [1] = test: Permeability of cell membrane to substrates (uptake and wash-out)
Procedure: (§2) Fresh media was then added to cells, and the cells were returned to the CO2 incubator at 37° C. The level of fluorescence in cells in 96 well plates was measured on fluorescent plate reader CytoFluor II (Beckman) at Eex/Eem equal 480/520 nm and 540/575 nm for carboxyfluorescein-and carboxytetramethylrhodamine-modified substrates, respectively. Fluorescent images of the cells were taken on inverted epifluorescent microscope Axiovert-100 (Carl Zeiss) with filter sets appropriate for detection of FITC and carboxytetramethylrhodamine.

[2] = test system: DhaA.H272 mutants, i.e. H272F/G/A/Q; test: In vitro binding and pretreatment blocking, SDS-PAGE; parameters: species or system Rhodococcus rhodochrous
Text: FIG. 10 illustrates that pretreatment of a mutant DhaA with a substrate, biotin-C10H21NO2—Cl, blocks binding of another substrate. DhaA.WT-lanes 1 and 2; DhaA.H272 mutants: F, lanes 3 and 4; G, lanes 5 and 6; A, lanes 7 and 8; and Q, lanes 9 and 10. Samples 2, 4, 6, 8, and 10 were pretreated with biotin-C10H21NO2—Cl.
(§1) Then the proteins were resolved on SDS-PAGE.

CHO-K1 cells [3] = test: Toxicity of Cl-alkanes, CellTiter-Glo Luminescence Cell Viability Assay; type: cell-based
Procedure: To study the toxicity of Cl-alkanes, CHO-K1 cells were plated in 96 well plates to a density of 5,000 cells per well. […] Viability of the cells was measured with CellTiter-Glo™ Luminescence Cell Viability Assay (Promega) according to the manufacturer's protocol. Generally, 100 μl of CellTiter-Glo™ reagent was added directly to the cells and the luminescence was recorded at 10 minutes using a DYNEX MLX microtiter plate luminometer.

E. coli = test: Permeability of plasma membrane of prokaryotic cells to substrates
[4] = Tethering of R.Luc-DhaA fusions to streptavidin-coated plates via biotin Cl-alkane; details: pretreatment of R.Luc-connector-DhaA.H272F
Procedure: Translated proteins were contacted with biotin-C10H21N1O2—Cl substrate at 25 μM (final concentration), for 60 minutes at room temperature. Unbound biotin-C10H21N1O2—Cl was removed by gel-filtration on Sephadex G-25 prepackaged columns (Amersham Biosciences). Collected fractions of R.Luc-connector-DhaA fusions were placed in SA-coated 96-well plate for 1 hour at room temperature, unbound proteins were washed out and luciferase activity was measured.

streptavidin = streptavidin (Streptomyces avidinii, UniProt P22629); details: surface plasmon resonance; cited from earlier work
DhaA.H272F = DhaA.H272F (Rhodococcus rhodochrous, UniProt P0A3G2, H272F); test: In vitro binding of Cl-alkanes with functional groups, SDS-PAGE with fluoroimager or HRP-streptavidin; details: dose dependent, 0.04-125 μM tested
Text: as §1

CHO-K1 cells [5] = test system: CHO-K1 cells
Procedure: as §2

DhaA.WT = DhaA.WT (Rhodococcus rhodochrous, UniProt P0A3G2); test: Hydrolysis of Cl-alkanes, pH-indicator dye (phenol red) assay; type: biochemical
Text: To study the effect of a point mutation on the activity of DhaA (WT or mutant) hydrolysis of Cl-alkanes, a pH-indicator dye system as described by Holloway et al. (1998) was employed.

[6] = target: tetracysteine domain in a recombinant protein; details: cited from earlier work

O=C(NCCOCCOCCCCCCCl)c1ccc(-c2c3ccc(=O)cc-3oc3cc(O)ccc23)c(C(=O)O)c1 [N-{2-[2-(6-Chlorohexyloxy)-ethoxyl-ethyl}-fluorescein-5-amide]
permeability of plasma membrane of CHO-K1 cells (CHO-K1 cells [1]): did not cross the plasma membrane

N-{2-[2-(6-Chlorohexyloxy)-ethoxy]-ethyl}-tetramethylrhodamine-5-(and -6)-amide
binding to DhaA.H272F/G/A/Q [2]: bound | toxicity after a 4 hour treatment (CHO-K1 cells [3]; 100 μM (the highest concentration tested)): no toxicity | maximum non-toxic concentration (CHO-K1 cells [3]; 24 hour treatment): 6.25 µM | IC50 (CHO-K1 cells [3]; 24 hour treatment, read-out: IC50 of reduction of relative luminescence): ~100 µM | permeability of plasma membrane of CHO-K1 cells (CHO-K1 cells [1]): permeable | permeability of plasma membrane of E. coli (E. coli): permeable | decrease of efficiency of capturing by pretreatment with non-biotinylated substrate [4]: about 80%

O=C(O)CCCC[C@@H]1SC[C@@H]2NC(=O)N[C@@H]21 [biotin]
on-rate (streptavidin): 5e+06 M⁻¹ s⁻¹

O=C(CCCC[C@@H]1SC[C@@H]2NC(=O)N[C@@H]21)NCCOCCOCCCCCCCl [biotin-C10H21NO2—Cl]
concentration at which binding to DhaA.H272F could be detected (DhaA.H272F): 0.2 µM | permeability of plasma membrane of CHO-K1 cells (CHO-K1 cells [5]): permeable | permeability of plasma membrane of E. coli (E. coli): permeable

CCCCCl [1-Cl-butane]
activity of the wild-type enzyme with the substrate (DhaA.WT; 0.1 mg/ml of enzyme and 10 mM substrate at pH 7.0-8.2): 5 units/mg of protein

O=C1OC2(c3ccccc31)c1ccc(O)c([As]3SCCS3)c1Oc1c2ccc(O)c1[As]1SCCS1 [FLASH, 4′,5′-bis(1,3,2-dithioarsolan-2-yl)fluorescein]
dissociation constant [6]: nanomolar or lower

OCCCCCCCCCCCl [1-Cl-alkane-10-decanol]
initial rate of hydrolysis (IRH) (DhaA.WT; first 60 seconds after enzyme addition): much higher than the IRH of 1-Cl-decane
